Results taken from patent US10597388B2, “Pyridazinone herbicides” (FMC CORPORATION, priority 2014, dated 2020).
Read-outs that look alike come from different tables or passages of the source.

Experiments:
Assay type in all cases: in vivo
[1] = test system: wheat (Triticum aestivum); experiment: Test A greenhouse herbicide test, pre- and postemergence; details: for plant injury at 1000 g/ha / plant injury at 125 g/ha / plant injury at 500 g/ha: Triticum aestivum, 240 h; for plant injury at 1000 g/ha: 1000 g ai/ha; for plant injury at 1000 g/ha / plant injury at 500 g/ha / Wheat plant response rating: 0 to 100 scale; for plant injury at 125 g/ha / Plant response rating, Wheat: 125 g ai/ha; for plant injury at 125 g/ha: visual rating after approx. 10 d, 0 to 100 scale (0 no effect, 100 complete control); for plant injury at 500 g/ha / Wheat plant response rating: 500 g ai/ha; for Plant response rating, Wheat: 0 to 100 scale where 0 is no effect and 100 is complete control
How it was run: (§1)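 Visual injury ratings, 0 (no effect) to 100 (complete control), versus untreated plants after roughly 10 d in a greenhouse. Compounds, formulated in a surfactant-containing non-phytotoxic solvent, were sprayed on loam–sand soil after sowing (pre) or on one- to two-leaf plants 2–10 cm tall (post).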

[2] = test system: barnyardgrass (Echinochloa crus-galli); experiment: Test B flooded paddy test; details: 250 g ai/ha, Flood, visual rating on scale of 0 to 100 where 0 is no effect and 100 is complete control, 13 to 15 d after treatment; for pest or weed control at 250 g/ha: Echinochloa crus-galli, 360 h, read-out: Plant response rating, Barnyardgrass
How it was run: (§2)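 Ratings use a 0-100 visual scale, where 100 is complete control, and compare treated plants with controls after 13 to 15 d of greenhouse growth. Compound went straight into paddy water kept 3 cm over the soil surface, applied to seedlings at the 2-leaf stage.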

[3] = test system: ducksalad (Heteranthera limosa); experiment: Test B flooded paddy test; details: 250 g ai/ha, Flood, visual rating on scale of 0 to 100 where 0 is no effect and 100 is complete control, 13 to 15 d after treatment; for pest or weed control at 250 g/ha: Heteranthera limosa, 360 h, read-out: Plant response rating, Ducksalad
How it was run: as §2

rice (Oryza sativa) = experiment: Test B flooded paddy test; details: 250 g ai/ha, Flood, visual rating on scale of 0 to 100 where 0 is no effect and 100 is complete control, 13 to 15 d after treatment; for plant injury at 250 g/ha: Oryza sativa, 360 h, read-out: Plant response rating, Rice
How it was run: as §2

[4] = test system: sedge, umbrella (small-flower umbrella sedge, Cyperus difformis); experiment: Test B flooded paddy test; details: 250 g ai/ha, Flood, visual rating on scale of 0 to 100 where 0 is no effect and 100 is complete control, 13 to 15 d after treatment; for pest or weed control at 250 g/ha: Cyperus difformis, 360 h, read-out: Plant response rating, Sedge, Umbrella
How it was run: as §2

[5] = test system: chickweed (common chickweed, Stellaria media); experiment: Test C greenhouse herbicide test, postemergence
How it was run: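 Test chemicals were applied postemergence to greenhouse plants at the 1- to 4-leaf stage (2–18 cm tall) growing in peat/vermiculite medium. After 13–15 d, injury was rated visually against untreated controls on a 0–100 scale (0 = no effect, 100 = complete control).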

kochia (Kochia scoparia) = experiment: Test A greenhouse herbicide test, pre- and postemergence; details: for pest or weed control at 125 g/ha / pest or weed control at 500 g/ha: Bassia scoparia, 240 h
How it was run: as §1

[6] = test system: ryegrass, Italian (Italian ryegrass, Lolium multiflorum); experiment: as above; details: for pest or weed control at 125 g/ha / pest or weed control at 500 g/ha: Lolium multiflorum, 240 h
How it was run: as §1

[7] = post-emergence, Postemergence, 0 is no effect, 100 is complete control, read-out: Wheat plant response rating
[8] = Postemergence, 31 g ai/ha, 0 to 100 scale (0 no effect, 100 complete control)
[9] = Postemergence, 125 g ai/ha, scale 0 to 100, 0 is no effect, 100 is complete control
[10] = Postemergence, 250 g ai/ha, scale 0 to 100, 0 no effect, 100 complete control, 13 to 15 d
[11] = postemergence, 62 g ai/ha, scale 0 to 100, 0 no effect, 100 complete control
[12] = post-emergence, Postemergence, 125 g ai/ha, visual rating after approx. 10 d, 0 to 100 scale (0 no effect, 100 complete control), read-out: Plant response rating, Kochia
[13] = post-emergence, Postemergence, 500 g ai/ha, 0 to 100 scale, 0 is no effect, 100 is complete control, read-out: Kochia plant response rating
[14] = pre-emergence, Preemergence, 125 g ai/ha, 0 to 100 scale where 0 is no effect and 100 is complete control, read-out: Kochia plant response rating
[15] = pre-emergence, Preemergence, 500 g ai/ha, 0 to 100 scale, 0 no effect, 100 complete control, read-out: Plant response rating, Kochia
[16] = post-emergence, Postemergence, 125 g ai/ha, visual rating after approx. 10 d, 0 to 100 scale (0 no effect, 100 complete control), read-out: Plant response rating, Ryegrass, Italian
[17] = post-emergence, Postemergence, 500 g ai/ha, 0 to 100 scale, 0 is no effect, 100 is complete control, read-out: Ryegrass, Italian plant response rating
[18] = pre-emergence, Preemergence, 125 g ai/ha, 0 to 100 scale where 0 is no effect and 100 is complete control, read-out: Ryegrass, Italian plant response rating
[19] = post-emergence, Postemergence, read-out: Plant response rating, Wheat
[20] = Postemergence, 125 g ai/ha, visual rating after approx. 10 d, 0 to 100 scale (0 no effect, 100 complete control)
[21] = Postemergence, 500 g ai/ha, 0 to 100 scale, 0 is no effect, 100 is complete control
[22] = Preemergence, 125 g ai/ha, 0 to 100 scale where 0 is no effect and 100 is complete control
[23] = Preemergence, 500 g ai/ha, 0 to 100 scale, 0 no effect, 100 complete control
[24] = Postemergence, 125 g ai/ha, 0 to 100 scale where 0 is no effect and 100 is complete control
[25] = Postemergence, 0 is no effect, 100 is complete control

| SMILES | pest or weed control at 250 g/ha [2] | pest or weed control at 250 g/ha [3] | plant injury at 250 g/ha (rice (Oryza sativa)) | pest or weed control at 250 g/ha [4] | Chickweed plant response rating [5, 8] | Plant response rating, Chickweed [5, 9] | Plant response rating, Chickweed [5, 10] | Chickweed plant response rating [5, 11] | pest or weed control at 125 g/ha (kochia (Kochia scoparia); [12]) | pest or weed control at 500 g/ha (kochia (Kochia scoparia); [13]) | pest or weed control at 125 g/ha (kochia (Kochia scoparia); [14]) | pest or weed control at 500 g/ha (kochia (Kochia scoparia); [15]) | pest or weed control at 125 g/ha [6, 16] | pest or weed control at 500 g/ha [6, 17] | pest or weed control at 125 g/ha [6, 18] | plant injury at 125 g/ha [1, 19] | plant injury at 500 g/ha [1, 7] | Plant response rating, Kochia (kochia (Kochia scoparia); [20]) | Kochia plant response rating (kochia (Kochia scoparia); [21]) | Kochia plant response rating (kochia (Kochia scoparia); [22]) | also measured |
| --- | --- | --- | --- | --- | --- | --- | --- | --- | --- | --- | --- | --- | --- | --- | --- | --- | --- | --- | --- | --- | --- |
| Cc1ccc2sc(C)c(-c3c(O)c(C)nn(C)c3=O)c2c1 [Compound 1, 4-(2,5-dimethylbenzo[b]thien-3-yl)-5-hydroxy-2,6-dimethyl-3(2H)-pyridazinone] | 0% | 20% | 0% | 0% | 95 | 98 | 100 | 95 | – | – | – | – | – | – | – | – | – | – | – | – | plant injury at 1000 g/ha [1, 7]: 0%; plant injury at 1000 g/ha ([1]; pre-emergence, Preemergence, 0 no effect, 100 complete control, read-out: Plant response rating, Wheat): 0% |
| CC(=O)Oc1c(C)nn(C)c(=O)c1-c1c(C)oc2ccc(C)cc12 [Compound 14, 5-(acetyloxy)-4-(2,5-dimethyl-3-benzofuranyl)-2,6-dimethyl-3(2H)-pyridazinone] | 0% | 0% | 0% | 0% | 90 | 90 | 90 | 90 | 80% | 90% | 10% | 50% | 60% | 80% | 30% | 0% | 0% | – | – | – | – |
| CC(=O)Oc1c(C)nn(C)c(=O)c1-c1c(C)oc2c(C)cc(C)cc12 [Compound 16, 5-(acetyloxy)-2,6-dimethyl-4-(2,5,7-trimethyl-3-benzofuranyl)-3(2H)-pyridazinone] | 0% | 30% | 0% | 0% | 75 | 90 | 90 | 80 | 50% | 60% | 0% | 30% | 50% | 80% | 30% | 0% | 0% | – | – | – | pest or weed control at 500 g/ha ([6]; pre-emergence, Preemergence, 500 g ai/ha, 0 to 100 scale, 0 no effect, 100 complete control, read-out: Plant response rating, Ryegrass, Italian): 80% |
| CC(=O)Oc1c(C)nn(C)c(=O)c1-c1c(C)sc2ccc(C)cc12 [Compound 25] | – | – | – | – | 90 | 100 | 100 | 98 | – | – | – | – | – | – | – | – | – | 100 | 100 | 90 | Plant response rating, Kochia (kochia (Kochia scoparia); [23]): 100; Plant response rating, Ryegrass, Italian [6, 24]: 100; Ryegrass, Italian plant response rating [6, 21]: 100; Ryegrass, Italian plant response rating [6, 22]: 100; Plant response rating, Ryegrass, Italian [6, 23]: 100; Plant response rating, Wheat ([1]; Postemergence): 0; Wheat plant response rating [1, 25]: 0; Plant response rating, Barnyardgrass [2]: 30; Plant response rating, Ducksalad [3]: 20; Plant response rating, Rice (rice (Oryza sativa)): 0; Plant response rating, Sedge, Umbrella [4]: 60 |
| CC(=O)Oc1c(C)nn(C)c(=O)c1-c1c(C)sc2c(C)cc(C)cc12 [Compound 27] | – | – | – | – | 95 | 100 | 100 | 100 | – | – | – | – | – | – | – | – | – | 70 | 90 | 40 | Plant response rating, Kochia (kochia (Kochia scoparia); [23]): 90; Plant response rating, Ryegrass, Italian [6, 24]: 100; Ryegrass, Italian plant response rating [6, 21]: 100; Ryegrass, Italian plant response rating [6, 22]: 100; Plant response rating, Ryegrass, Italian [6, 23]: 100; Plant response rating, Wheat ([1]; Postemergence): 0; Wheat plant response rating [1, 25]: 0; Plant response rating, Barnyardgrass [2]: 30; Plant response rating, Ducksalad [3]: 30; Plant response rating, Rice (rice (Oryza sativa)): 40; Plant response rating, Sedge, Umbrella [4]: 80 |
